Source: US8536354B2, “Steroidal ligands and their use in gene switch modulation” (Intrexon Corporation, priority 2008, dated 2013)
“Also recorded” adds a separate entry of the source. Where two headings read alike, the source gives them in different places.

Assays:
[1] = biological target: Bemisia argentifolii EcR (BaEcR-DEF) (Bemisia argentifolii (Bemisia tabaci biotype B / MEAM1), UniProt A0A6M3RDR8); assay: Two-hybrid gene switch assay, BaEcR-DEF in NIH3T3 cells; conditions: for Emax: NIH3T3, 48 h
[2] = biological target: T1, Amblyomma americanum EcR (AmaEcR-DEF) (Amblyomma americanum, UniProt O44338); assay: Two-hybrid gene switch assay, AmaEcR-DEF in NIH3T3 cells; conditions: for Emax: NIH3T3, 48 h
T1 sequence (O44338 291-570): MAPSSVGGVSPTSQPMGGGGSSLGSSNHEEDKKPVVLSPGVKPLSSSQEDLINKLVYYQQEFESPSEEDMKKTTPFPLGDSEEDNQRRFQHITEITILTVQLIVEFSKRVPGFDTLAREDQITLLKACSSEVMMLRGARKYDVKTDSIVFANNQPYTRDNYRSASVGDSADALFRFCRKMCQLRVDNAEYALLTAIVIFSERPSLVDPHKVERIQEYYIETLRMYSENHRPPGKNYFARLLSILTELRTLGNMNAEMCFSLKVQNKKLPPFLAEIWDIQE
T1 sequence (P28702 299-449 partner): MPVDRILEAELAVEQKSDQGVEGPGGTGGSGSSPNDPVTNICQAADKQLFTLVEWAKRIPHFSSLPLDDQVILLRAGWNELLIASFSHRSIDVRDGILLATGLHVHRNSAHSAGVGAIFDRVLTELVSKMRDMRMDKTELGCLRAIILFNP

[3] = test system: Nephotettix cincticeps EcR (NcEcR-DEF); assay: Two-hybrid gene switch assay, NcEcR-DEF in NIH3T3 cells; conditions: for rel max FI (20E), NC: max fold induction at any concentration relative to 20E; for rel max FI (PoA), NC: max fold induction at any concentration relative to PoA; for EC50: read-out: EC50 (μM), NC, NIH3T3 cells, luciferase, 48 h, ligand 0.01-33 μM
[4] = biological target: T2, wild-type Drosophila melanogaster EcR (DmEcR-DEF) (Drosophila melanogaster, UniProt P34021); assay: Two-hybrid gene switch assay, DmEcR-DEF in NIH3T3 cells; conditions: for rel max FI (20E), DM: max fold induction at any concentration relative to 20E; for rel max FI (PoA), DM: max fold induction at any concentration relative to PoA
T2 sequence (P34021 342-878 limits assumed): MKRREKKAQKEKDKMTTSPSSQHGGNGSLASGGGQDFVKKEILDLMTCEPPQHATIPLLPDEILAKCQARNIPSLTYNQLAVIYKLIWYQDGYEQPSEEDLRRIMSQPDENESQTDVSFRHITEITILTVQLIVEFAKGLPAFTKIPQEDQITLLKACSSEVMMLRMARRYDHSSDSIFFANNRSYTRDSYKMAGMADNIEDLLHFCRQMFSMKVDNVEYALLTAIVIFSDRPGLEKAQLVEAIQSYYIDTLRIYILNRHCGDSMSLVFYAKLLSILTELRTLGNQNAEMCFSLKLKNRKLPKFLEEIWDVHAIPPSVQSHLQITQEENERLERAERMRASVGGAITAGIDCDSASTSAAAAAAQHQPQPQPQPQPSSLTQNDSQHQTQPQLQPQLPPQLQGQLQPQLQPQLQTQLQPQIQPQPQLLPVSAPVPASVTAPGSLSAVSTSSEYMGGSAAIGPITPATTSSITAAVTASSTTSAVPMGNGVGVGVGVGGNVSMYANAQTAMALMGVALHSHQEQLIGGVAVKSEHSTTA

[5] = biological target: T3, Manduca sexta EcR (MsEcR) (Manduca sexta, UniProt P49883); assay: Two-hybrid gene switch assay, MsEcR-CDEF in NIH3T3 cells; conditions: for rel max FI (20E), MS: max fold induction at any concentration relative to 20E; for rel max FI (PoA), MS: max fold induction at any concentration relative to PoA
T3 sequence (P49883 293-531 limits assumed): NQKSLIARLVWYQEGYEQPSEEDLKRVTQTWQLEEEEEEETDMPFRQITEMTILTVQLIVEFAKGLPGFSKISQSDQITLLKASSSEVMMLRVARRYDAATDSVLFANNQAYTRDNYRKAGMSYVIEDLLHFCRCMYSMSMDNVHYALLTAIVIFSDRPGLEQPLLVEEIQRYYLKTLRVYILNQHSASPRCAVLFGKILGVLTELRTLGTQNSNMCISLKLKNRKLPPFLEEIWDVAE

[6] = biological target: T4, wild-type Choristoneura fumiferana EcR (CfEcR-DEF) (Choristoneura fumiferana, UniProt O77255); assay: Two-hybrid gene switch assay, wild-type CfEcR-DEF (GAL4-EcR / VP16-RXR-USP chimera, luciferase) in NIH3T3 cells; conditions: for Emax: NIH3T3, 48 h
T4 sequence (O77255 219-541): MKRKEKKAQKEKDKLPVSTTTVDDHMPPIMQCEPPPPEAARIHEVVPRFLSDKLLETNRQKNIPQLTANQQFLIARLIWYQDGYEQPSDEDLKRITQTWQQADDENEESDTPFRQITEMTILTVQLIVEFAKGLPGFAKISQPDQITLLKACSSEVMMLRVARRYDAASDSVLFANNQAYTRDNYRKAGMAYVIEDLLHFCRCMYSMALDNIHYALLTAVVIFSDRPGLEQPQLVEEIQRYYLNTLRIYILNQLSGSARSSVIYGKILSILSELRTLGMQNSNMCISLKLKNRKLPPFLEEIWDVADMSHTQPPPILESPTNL
T4 sequence (P28702 299-449 partner): T1 sequence (P28702 299-449 partner)

[7] = test system: EcRs (lepidopteran and non-lepidopteran); assay: Two-hybrid gene switch assays, statements across the set of ten EcRs in NIH3T3 cells
[8] = test system: D. melanogaster BII cell line (expresses the ecdysteroid receptor complex EcR-USP); assay: Drosophila melanogaster BII cell line bioassay (turbidometric; agonist and antagonist versions); conditions: Drosophila BII cell line, Example Two
[9] = read-out: rel max FI (20E), AMA
[10] = read-out: rel max FI (PoA), AMA

Sequence of Bemisia argentifolii EcR (BaEcR-DEF) (P28702 298-449): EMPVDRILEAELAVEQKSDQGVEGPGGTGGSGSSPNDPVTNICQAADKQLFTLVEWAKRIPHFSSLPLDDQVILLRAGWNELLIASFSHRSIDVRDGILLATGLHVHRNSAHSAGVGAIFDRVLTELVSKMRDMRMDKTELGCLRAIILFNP
Sequence of Bemisia argentifolii EcR (BaEcR-DEF) (A0A6M3RDR8 entry or part of it): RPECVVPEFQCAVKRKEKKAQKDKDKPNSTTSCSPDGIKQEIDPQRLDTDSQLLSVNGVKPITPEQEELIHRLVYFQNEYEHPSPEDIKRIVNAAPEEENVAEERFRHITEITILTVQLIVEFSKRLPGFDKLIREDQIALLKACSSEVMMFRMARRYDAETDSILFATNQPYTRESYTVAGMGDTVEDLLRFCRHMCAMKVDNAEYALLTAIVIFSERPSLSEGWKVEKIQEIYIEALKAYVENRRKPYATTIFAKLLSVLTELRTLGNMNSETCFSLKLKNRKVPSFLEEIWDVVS

SMILES	rel max FI (20E), NC [3]	rel max FI (PoA), NC [3]	EC50 [3]	rel max FI (20E), DM ([4]; DmEcR)	rel max FI (PoA), DM ([4]; DmEcR)	rel max FI (20E), MS ([5]; MsEcR)	rel max FI (PoA), MS ([5]; MsEcR)	EC50 [1]	Emax ([1]; read-out: rel max FI (20E), BA)	Emax ([1]; read-out: rel max FI (PoA), BA)	EC50 [2]	Emax [2, 9]	Emax [2, 10]	EC50 [5]	EC50 [6]	Emax ([6]; read-out: rel max FI (20E), CF)	Emax ([6]; read-out: rel max FI (PoA), CF)	EC50 [4]	selectivity / relative potency between EcRs [7]	also measured
COC1C[C@H]2C(=O)C=C3[C@H](CC[C@]4(C)[C@@H]([C@@](C)(O)C(CCC(C)(C)O)OC)CC[C@@]34OC)[C@@]2(C)CC1OC (some centres unmarked) [20E-2,3,14,22-tetramethyl ether]	0.01	0.01	> 33 µM	0.01	0.02	0.00	0.00	–	–	–	–	–	–	–	–	–	–	–	–	rel max FI (20E), BA ([1]; BaEcR, max fold induction at any concentration relative to 20E): 0.02; rel max FI (PoA), BA ([1]; BaEcR, max fold induction at any concentration relative to PoA): 0.01; EC50 ([1]; read-out: EC50 (μM), BA, BaEcR, NIH3T3 cells, luciferase, 48 h, ligand 0.01-33 μM): > 33 µM; rel max FI (20E), AMA ([2]; AmaEcR, max fold induction at any concentration relative to 20E): 0.34; rel max FI (PoA), AMA ([2]; AmaEcR, max fold induction at any concentration relative to PoA): 0.26; EC50 ([2]; read-out: EC50 (μM), AMA, AmaEcR, NIH3T3 cells, luciferase, 48 h, ligand 0.01-33 μM): > 33 µM; EC50 ([4]; read-out: EC50 (μM), DM, DmEcR, NIH3T3 cells, luciferase, 48 h, ligand 0.01-33 μM): > 33 µM; EC50 ([5]; read-out: EC50 (μM), MS, MsEcR, NIH3T3 cells, luciferase, 48 h, ligand 0.01-33 μM): > 33 µM; EC50 ([6]; read-out: EC50 (μM), CF, wild-type CfEcR, NIH3T3 cells, luciferase, 48 h, ligand 0.01-33 μM): > 33 µM; rel max FI (20E), CF ([6]; wild-type CfEcR, max fold induction at any concentration relative to 20E): 0.46; rel max FI (PoA), CF ([6]; wild-type CfEcR, max fold induction at any concentration relative to PoA): 0.00
CO[C@H]1C[C@@]2(C)[C@@H](C[C@H]1O)C(=O)C=C1[C@@H]2CC[C@]2(C)[C@@H]([C@@](C)(O)[C@@H](CCC(C)(C)O)OC)CC[C@@]12O [20E-2,22-dimethyl ether]	0.84	0.86	~10 µM	0.12	0.15	0.15	0.09	~10 µM	24%	19%	~8 µM	94%	72%	~20 µM	> 33 µM	63%	0%	–	–	EC50 ([4]; EC50 (μM), DM, DmEcR, NIH3T3 cells, luciferase, 48 h, ligand 0.01-33 μM): ~20 µM
CO[C@H]1C[C@@]2(C)[C@@H](C[C@H]1O)C(=O)C=C1[C@@H]2CC[C@]2(C)[C@@H]([C@@](C)(O)[C@H](O)CCC(C)(C)O)CC[C@@]12O [20E-2-methyl ether]	0.82	0.84	~8 µM	0.00	0.00	0.16	0.10	> 33 µM	3%	3%	~10 µM	65%	50%	~20 µM	> 33 µM	14%	0%	> 33 µM	–	–
CO[C@@H]1C[C@H]2C(=O)C=C3[C@H](CC[C@]4(C)[C@@H]([C@@](C)(O)[C@@H](CCC(C)(C)O)OC)CC[C@@]34O)[C@@]2(C)C[C@@H]1O [20E-3,22-dimethyl ether]	1.03	1.06	~8 µM	0.07	0.09	0.82	0.52	~10 µM	38%	30%	~2 µM	104%	80%	~10 µM	> 33 µM	46%	0%	~20 µM	–	–
CO[C@@H]1C[C@H]2C(=O)C=C3[C@H](CC[C@]4(C)[C@@H]([C@@](C)(O)[C@H](O)CCC(C)(C)O)CC[C@@]34O)[C@@]2(C)C[C@@H]1O [20E-3-methyl ether]	1.01	1.04	1.69 µM	0.02	0.03	1.15	0.73	~15 µM	29%	23%	~3.3 µM	91%	70%	~10 µM	> 33 µM	115%	1%	> 33 µM	–	–
CO[C@H](CCC(C)(C)O)[C@](C)(O)C1CC[C@@]2(O)C3=CC(=O)C4C[C@@H](O)[C@@H](O)CC4(C)C3CCC12C (some centres unmarked) [20E-22-methyl ether]	1.02	1.05	2.59 µM	0.87	1.07	1.29	0.81	~3 µM	154%	123%	~1 µM	108%	83%	~10 µM	> 33 µM	7%	0%	~4 µM	–	–
CC(C)CC[C@@H](O)[C@](C)(O)[C@H]1CC[C@@]2(O)C3=CC(=O)[C@@H]4C[C@@H](O)[C@@H](O)C[C@]4(C)[C@H]3[C@H](O)C[C@]12C [ajugasterone C]	–	–	–	–	–	–	–	–	–	–	–	–	–	–	–	–	–	–	higher in non-lepidopteran species	–
CC(C)(O)C(CCC(C)(O)C1CCC2(O)C3=CC(=O)C4CC(O)C(O)CC4(C)C3CCC12C)OC(=O)c1ccc[nH]1 (centres unmarked) [canescensterone]	–	–	–	–	–	–	–	–	–	–	–	–	–	–	–	–	–	–	selective for non-lepidopteran EcRs; also recorded: BaEcR>E274V/V390I/Y410E mutant-CfEcR	EC50 [8]: 0.53 nM
C[C@@H]1C(=O)O[C@H](C)[C@H]1C[C@@H](O)[C@](C)(O)[C@H]1CC[C@@]2(O)C3=CC(=O)[C@@H]4C[C@@H](O)[C@@H](O)C[C@]4(C)[C@H]3CC[C@]12C [cyasterone]	–	–	–	–	–	–	–	–	–	–	–	–	–	–	–	–	–	–	somewhat selective for lepidopteran EcRs	–
CC(C)=CC[C@@H](O)[C@](C)(O)[C@H]1CC[C@@]2(O)C3=CC(=O)[C@@H]4C[C@@H](O)[C@@H](O)C[C@]4(C)[C@H]3CC[C@]12C [stachysterone C]	–	–	–	–	–	–	–	–	–	–	–	–	–	–	–	–	–	–	–	activity across the tested set of EcRs ([7]; FIGS. 13 and 14): active
